Results taken from patent publication US5710130A, “Antithrombotic agents” (Eli Lilly and Company, priority 1995, dated 1998).
Where a name gives a salt, the structure may show the parent alone.

Key:
Assay type in all cases: biochemical
human plasma [1] = experiment: Human plasma anticoagulation, prothrombin time (PT); conditions: concentration required to double PT, linear extrapolation
Experimental: (§1) Dog plasma and rat plasma is obtained from conscious mixed-breed hounds (either sex, Hazelton-LRE, Kalamazoo, Mich., U.S.A.) or from anesthetized male Sprague-Dawley rats (Harlan Sprague-Dawley, Inc., Indianapolis, Ind., U.S.A.) by venipuncture into 3.8 percent citrate. Fibrinogen is prepared from in-date ACD human blood as the fraction I-2 according to previous procedures and specifications. […] Human fibrinogen is also purchased as 98 percent pure/plasmin free from American Diagnostica, Greenwich, Conn. Coagulation reagents ACTIN, Thromboplastin, and Human plasma are from Baxter Healthcare Corp., Dade Division, Miami, Fla. Bovine thrombin from Parke-Davis ([…], Mich.) is used for coagulation assays in plasma.
(§2) Coagulation assay procedures are as previously described. […] A CoAScreener coagulation instrument (American LABor, Inc.) is used for all coagulation assay measurements. The prothrombin time (PT) is measured by adding 0.05 mL saline and 0.05 mL Thromboplastin-C reagent to 0.05 mL test plasma. The activated partial thromboplastin time (APTT) is measured by incubation of 0.05 mL test plasma with 0.05 mL Actin reagent for 120 seconds followed by 0.05 mL CaCl2 (0.02M). The thrombin time (TT) is measured by adding 0.05 mL saline and 0.05 mL thrombin (10 NIH units/mL) to 0.05 mL test plasma. The compounds of Formula I are added to human or animal plasma over a wide range of concentrations to determine prolongation effects on the APTT, PT, and TT assays. Linear extrapolations are performed to estimate the concentrations required to double the clotting time for each assay.

Human Thrombin = Human Thrombin (Homo sapiens, UniProt P00734); experiment: Inhibition of thrombin amidase activity (Kass), chromogenic substrate; conditions: mean Kass over a range of concentrations; substrate N-benzoyl-Phe-Val-Arg-p-nitroanilide
human plasma [2] = experiment: Human plasma anticoagulation, activated partial thromboplastin time (APTT); conditions: concentration required to double APTT, linear extrapolation
Experimental: as §1, §2

human plasma [3] = experiment: Human plasma anticoagulation, thrombin time (TT); conditions: concentration required to double thrombin time, linear extrapolation
Experimental: as §1, §2

Compound | Human Plasma Anticoagulation 2x Clotting time PT (human plasma [1]) | Kass Human Thrombin (Human Thrombin) | Human Plasma Anticoagulation 2x Clotting time APTT (human plasma [2]) | Human Plasma Anticoagulation 2x Clotting time TT (human plasma [3])
Cl.N=C(N)c1cccc(CNC(=O)[C@@H]2CCCN2C(=O)[C@H](N)Cc2ccccc2)c1 [Example 16, D-Phe-Pro-m-NHCH2 C6 H4 C(NH)NH2.0.75HCl] | 8,500 ng/mL | 0.97 × 10^6 (L/mole) | 8,600 ng/mL | 650 ng/mL
N=C(N)c1ccc(CNC(=O)[C@@H]2CCCN2C(=O)[C@H]2C[C@H]3CCCC[C@H]3CN2)cc1 [Example 19, D-3-Piq-Pro-p-NHCH2 C6 H4 C(NH)NH2.3HCl] | 540 ng/mL | 11 × 10^6 (L/mole) | 300 ng/mL | 58 ng/mL
Cl.Cl.N=C(N)c1ccc(CCNC(=O)[C@@H]2CCCN2C(=O)[C@@H]2NCC[C@@H]3CCCC[C@@H]32)cc1 [Example 28, D-1-Piq-pro-p-NHCH2 CH2 -C6 H4 C(=NH)NH2.2HCl] | 8,300 ng/mL | 0.95 × 10^6 (L/mole) | 8,100 ng/mL | 
Cl.Cl.N=C(N)c1cccc(CCNC(=O)[C@@H]2CCCN2C(=O)[C@@H]2NCC[C@@H]3CCCC[C@@H]32)c1 [Example 29, D-1-Piq-Pro-m-NHCH2 CH2 -C6 H4 C(=NH )NH2.2HCl] | 15,000 ng/mL | 0.76 × 10^6 (L/mole) | 9,800 ng/mL | 
Cl.O=C(O)CNC(CC1CCCCC1)C(=O)N1CCCC1C(=O)NCCC1CCNCC1 [Example 54, HO2 CCH2 -D-Cha-Pro-4-NHCH2 CH2 -piperidine.HCl] | 2,200 ng/mL | 2.8 × 10^6 (L/mole) | 3,300 ng/mL | 140 ng/mL
N=C(N)N1CCC(CCNC(=O)[C@@H]2CCCN2C(=O)[C@@H](CC2CCCCC2)NCC(=O)O)CC1 [Example 57, HO2 CCH2 -D-Cha-Pro-4-NHCH2 CH2 -1-amidinopiperidine.HCl] | 340 ng/mL | 39 × 10^6 (L/mole) | 360 ng/mL | 14 ng/mL
Cl.O=C(O)CN[C@H](CC1CCCCC1)C(=O)N1CCC[C@H]1C(=O)NCCC1=CCNCC1 [Example 59, HO2 CCH2 -D-Cha-Pro-4-NHCH2 CH2 -3,4-dehydro-piperidine.HCl] | 7,000 ng/mL | 1.10 × 10^6 (L/mole) | 5,500 ng/mL | 420 ng/mL
N=C(N)C1CCC(CNC(=O)[C@@H]2CCCN2C(=O)[C@@H](CC2CCCCC2)NCC(=O)O)NC1 (stereo partly drawn) [Example 67, HO2 CCH2 -D-Cha-Pro-2-NHCH2 -5-amidinopiperidine.HCl] | 1,300 ng/mL | 11 × 10^6 (L/mole) | 1,800 ng/mL | 34 ng/mL
Cl.Nc1cc(CNC(=O)[C@@H]2CCCN2C(=O)[C@@H](CC2CCCCC2)NCC(=O)O)ccn1 [Example 73, HO2 CCH2 -D-Cha-Pro-4-NHCH2 -2-aminopyridine.HCl] | 330 ng/mL | 28 × 10^6 (L/mole) | 340 ng/mL | 21 ng/mL
Cl.Nc1ccc(CNC(=O)[C@@H]2CCCN2C(=O)[C@@H](CC2CCCCC2)NCC(=O)O)cn1 [Example 74, HO2 CCH2 -D-Cha-Pro-5-NHCH2 -2-aminopyridine.HCl] | 350 ng/mL | 29 × 10^6 (L/mole) | 420 ng/mL | 20 ng/mL
Cl.Nc1cc(CCNC(=O)[C@@H]2CCCN2C(=O)[C@@H](CC2CCCCC2)NCC(=O)O)ccn1 [Example 76, HO2 CCH2 -D-Cha-Pro-4-NHCH2 CH2 -2-aminopyridine.HCl] | 560 ng/mL | 12 × 10^6 (L/mole) | 490 ng/mL | 29 ng/mL
Nc1ccc(CNC(=O)[C@@H]2CCCN2C(=O)[C@@H](CC2CCCCC2)NCC(=O)O)cc1F [Example 77, HO2 CCH2 -D-Cha-pro-4-NHCH2-2-F-aniline.HCl] | 890 ng/mL | 11 × 10^6 (L/mole) | 1,600 ng/mL | 53 ng/mL
NCc1ccc(CNC(=O)[C@@H]2CCCN2C(=O)[C@@H](CC2CCCCC2)NCC(=O)O)cc1 [Example 78, HO2 CCH2 -D-Cha-Pro-4-NHCH2 C6 H4 CH2 NH2.HCl] | 760 ng/mL | 11 × 10^6 (L/mole) | 430 ng/mL | 46 ng/mL
CCS(=O)(=O)N[C@H](CC1CCCCC1)C(=O)N1CCC[C@H]1C(=O)NCc1ccc(C(=N)N)cc1 [Example 80, N-(ethylsulfonyl)-D-cyclohexylalanyl-N-[[4-(aminoiminomethyl)phenyl]methyl]-L-prolinamide hydrochloride] | 130 ng/mL | 1,700 × 10^6 (L/mole) | 40 ng/mL | 4 ng/mL
CCS(=O)(=O)N[C@H](CC1CCCCC1)C(=O)N1CCC[C@H]1C(=O)NCc1ccc(N)cc1F.Cl [Example 82, EtSO2 -D-Cha-Pro-4-NHCH2 -3-F-C6 H3 NH2.HCl] | 3,000 ng/mL | 5.0 × 10^6 (L/mole) | 3,800 ng/mL | 130 ng/mL
CCS(=O)(=O)N[C@H](CC1CCCCC1)C(=O)N1CCC[C@H]1C(=O)NCc1ccnc(N)c1.Cl [Example 83, EtSO2 -D-Cha-Pro-4-NHCH2 -2-aminopyridine.HCl] | 1,300 ng/mL | 2.4 × 10^6 (L/mole) | 1,000 ng/mL | 91 ng/mL
CCS(=O)(=O)N[C@H](CC1CCCCC1)C(=O)N1CCC[C@H]1C(=O)NCc1ccc(N)nc1.Cl [Example 84, EtSO2 -D-Cha-Pro-5-NHCH2 -2-aminopyridine.HCl] | 1,900 ng/mL | 2.9 × 10^6 (L/mole) | 1,500 ng/mL | 110 ng/mL
N=C(N)c1ccc(CNC(=O)[C@@H]2CCCN2C(=O)[C@H](NCC(=O)O)C2CCCCC2)cc1 [Example 86, N-(carboxymethyl)-D-cyclohexylglycyl-N-[[4-(aminoiminomethyl)phenyl]methyl]-L-prolinamide hydrochloride] | 180 ng/mL | 200 × 10^6 (L/mole) | 81 ng/mL | 4 ng/mL
Cl.N=C(N)c1ccc(CNC(=O)CN(CCc2ccccc2)C(=O)CNCC(=O)O)cc1 [Example 89, HOOCCH2 -Gly-N-C6 H5 CH2 CH2 Gly-p-NHCH2 C6 H4 C(NH)NH2.HCl] | 37,000 ng/mL | 0.14 × 10^6 (L/mole) | 51,000 ng/mL | 570 ng/mL
HOOCCH2 -D-Phe-Pro(4-cis-isoamyl)-p-NHCH2 C6 H4 C(NH)NH2.HCl [Example 50] | 420 ng/mL | 40 × 10^6 (L/mole) | 460 ng/mL | 35 ng/mL
